Reference: patent publication US20230017045A1, “PYRIDINE AND PYRIMIDINE CARBOXYLATE HERBICIDES AND METHODS OF USE THEREOF” (Dow AgroSciences LLC, priority 2017, published 2023)
Like-named read-outs stand apart in the source and are kept apart here.

Tested on: test plant species
Assay: Post-emergent herbicidal activity test (greenhouse, foliar spray, visual growth reduction)
Format: in vivo
Conditions: post-emergence, 336 h, 140 g ai/ha, 14 days after application
Outline: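 Visual scoring 14 d after treatment (0 = no injury, 100 = complete control) against nontreated and solvent-blank plants gave percent growth reduction. Foliar application used a track sprayer delivering 187 L/ha to seedlings at first or second true leaf stage, grown at 23–29 °C day, ~15 h photoperiod.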

[1] = ALOMY: blackgrass (Alopecurus myosuroides), read-out: Visual Growth Reduction (%) 14 Days After Application, ALOMY
[2] = AMARE: redroot pigweed (Amaranthus retroflexus), read-out: Visual Growth Reduction (%) 14 Days After Application, AMARE
[3] = AVEFA: wild oat (Avena fatua), read-out: Visual Growth Reduction (%) 14 Days After Application, AVEFA
[4] = CHEAL: lambsquarters (Chenopodium album), read-out: Visual Growth Reduction (%) 14 Days After Application, CHEAL
[5] = CIRAR: canada thistle (Cirsium arvense), read-out: Visual Growth Reduction (%) 14 Days After Application, CIRAR
[6] = CYPES: yellow nutsedge (Cyperus esculentus), read-out: Visual Growth Reduction (%) 14 Days After Application, CYPES
[7] = DIGSA: crabgrass (Digitaria sanguinalis), read-out: Visual Growth Reduction (%) 14 Days After Application, DIGSA
[8] = ECHCG: barnyardgrass (Echinochloa crus-galli), read-out: Visual Growth Reduction (%) 14 Days After Application, ECHCG
[9] = IPOHE: ivy-leaf morning glory (Ipomoea hederacea), read-out: Visual Growth Reduction (%) 14 Days After Application, IPOHE
[10] = KCHSC: kochia (Bassia scoparia), read-out: Visual Growth Reduction (%) 14 Days After Application, KCHSC
[11] = ORYSA: rice (Oryza sativa), read-out: Visual Growth Reduction (%) 14 Days After Application, ORYSA
[12] = SETFA: giant foxtail (Setaria faberi), read-out: Visual Growth Reduction (%) 14 Days After Application, SETFA
[13] = SORVU: grain sorghum (Sorghum vulgare), read-out: Visual Growth Reduction (%) 14 Days After Application, SORVU
[14] = STEME: common chickweed (Stellaria media), read-out: Visual Growth Reduction (%) 14 Days After Application, STEME
[15] = TRZAS: wheat, spring (Triticum aestivum), read-out: Visual Growth Reduction (%) 14 Days After Application, TRZAS

Structure (SMILES)	pest or weed control at 140 g/ha [1] [%]	pest or weed control at 140 g/ha [2] [%]	pest or weed control at 140 g/ha [3] [%]	pest or weed control at 140 g/ha [4] [%]	pest or weed control at 140 g/ha [5] [%]	pest or weed control at 140 g/ha [6] [%]	pest or weed control at 140 g/ha [7] [%]	pest or weed control at 140 g/ha [8] [%]	pest or weed control at 140 g/ha [9] [%]	pest or weed control at 140 g/ha [10] [%]	pest or weed control at 140 g/ha [11] [%]	pest or weed control at 140 g/ha [12] [%]	pest or weed control at 140 g/ha [13] [%]	pest or weed control at 140 g/ha [14] [%]	pest or weed control at 140 g/ha [15] [%]
COC(=O)c1nc(-c2ccc(C#N)cc2Cl)c(F)cc1Cl [F186, Methyl 3-chloro-6-(2-chloro-4-cyanophenyl)-5-fluoropicolinate]	0 to 29	75 to 84	0 to 29	85 to 94	75 to 84	45 to 59	75 to 84	60 to 74	95 to 100	75 to 84	0 to 29	85 to 94	85 to 94	0 to 29	30 to 44
COC(=O)c1nc(-c2ccc(OC(F)(F)F)cc2F)c(F)cc1Cl [F187, Methyl 3-chloro-5-fluoro-6-(2-fluoro-4-(trifluoromethoxy)phenyl)picolinate]	0 to 29	85 to 94	30 to 44	75 to 84	75 to 84	30 to 44	85 to 94	45 to 59	95 to 100	45 to 59	0 to 29	75 to 84	95 to 100	0 to 29	30 to 44
COC(=O)c1nc(-c2ccc3occc3c2)c(F)cc1Cl [F188, Methyl 6-(benzofuran-5-yl)-3-chloro-5-fluoropicolinate]	0 to 29	0 to 29	0 to 29	60 to 74	45 to 59	0 to 29	30 to 44	0 to 29	30 to 44	0 to 29	0 to 29	0 to 29	0 to 29	0 to 29	0 to 29
COC(=O)c1nc(-c2ccc3[nH]ccc3c2)c(F)cc1Cl [F189, Methyl 3-chloro-5-fluoro-6-(1H-indol-5-yl)picolinate]	0 to 29	0 to 29	0 to 29	30 to 44	30 to 44	0 to 29	0 to 29	0 to 29	60 to 74	0 to 29	0 to 29	0 to 29	0 to 29	0 to 29	0 to 29
COc1cc(C(F)(F)F)ccc1-c1nc(C(=O)O)c(Cl)cc1F [F190, 3-Chloro-5-fluoro-6-(2-methoxy-4-(trifluoromethyl)phenyl) picolinic acid]	0 to 29	95 to 100	60 to 74	95 to 100	85 to 94	0 to 29	85 to 94	95 to 100	95 to 100	75 to 84	30 to 44	95 to 100	95 to 100	0 to 29	60 to 74
COC(=O)c1nc(-c2ncc(Cl)cc2Cl)ccc1Cl [F191, Methyl 3′,5,5′-trichloro-[2,2′-bipyridine]-6-carboxylate]	0 to 29	85 to 94	0 to 29	95 to 100	85 to 94	45 to 59	85 to 94	75 to 84	95 to 100	60 to 74	0 to 29	85 to 94	85 to 94	0 to 29	0 to 29
O=C(O)c1nc(-c2ccc(C(F)(F)F)nc2Cl)ccc1Cl [F192, 2′,5-Dichloro-6′-(trifluoromethyl)-[2,3′-bipyridine]-6-carboxylic acid]	0 to 29	85 to 94	0 to 29	95 to 100	75 to 84	0 to 29	85 to 94	75 to 84	95 to 100	60 to 74	0 to 29	75 to 84	85 to 94	0 to 29	0 to 29
O=C(O)c1nc(-c2ncc(Cl)c(C(F)F)c2Cl)ccc1Cl [F193, 3′,5,5′-Trichloro-4′-(difluoromethyl)-[2,2′-bipyridine]-6-carboxylic acid]	0 to 29	95 to 100	30 to 44	85 to 94	0 to 29	0 to 29	85 to 94	85 to 94	95 to 100	0 to 29	0 to 29	75 to 84	95 to 100	0 to 29	0 to 29
COC(=O)c1nc(-c2cnc(C(F)(F)F)cc2Cl)ccc1Cl [F194, Methyl 4′,5-dichloro-6′-(trifluoromethyl)-[2,3′-bipyridine]-6-carboxylate]	0 to 29	0 to 29	0 to 29	30 to 44	75 to 84	0 to 29	0 to 29	45 to 59	95 to 100	0 to 29	0 to 29	0 to 29	45 to 59	0 to 29	0 to 29
O=C(O)c1nc(-c2ncc(Cl)cc2Cl)ccc1Cl [F195, 3′,5,5′-Trichloro-[2,2′-bipyridine]-6-carboxylic acid]	0 to 29	95 to 100	30 to 44	95 to 100	0 to 29	0 to 29	60 to 74	75 to 84	95 to 100	60 to 74	30 to 44	60 to 74	85 to 94	0 to 29	45 to 59
O=C(O)c1nc(-c2cc3c(cc2Cl)OCO3)c(F)cc1Cl [F196, 3-Chloro-6-(6-chlorobenzo[d][1,3]dioxol-5-yl)-5-fluoropicolinic acid]	0 to 29	75 to 84	0 to 29	85 to 94	0 to 29	0 to 29	0 to 29	0 to 29	95 to 100	60 to 74	0 to 29	0 to 29	45 to 59	0 to 29	0 to 29
